pIC50: −log10 of the molar value. ≈ marks a conversion by molar mass, not a printed value.
How the values were obtained:
[1] = High-Throughput Solubility Assay; assay type: physicochemical; conditions: for solubility at 24 h: kinetic from dmso stock, pH 7, aqueous potassium phosphate buffer, nominal 200 μM, 24 h at room temperature
Procedure: High-Throughput Solubility Assay
A nominal 200 μM suspensions/solutions of a compound of formula (I) in aqueous potassium phosphate buffer at pH=7 and aqueous citric acid buffer at pH=3 were prepared on a “Multiscreen-HTS”, 0.2 μm filter plate (Millipore, Billerica, Mass.). These solutions were stirred for 10 min and stored for 24 h at room temperature to pre-saturate the membrane filter and to reach a “pseudo-thermodynamic solubility”. Then the plate was put on a 500 μL 96 multiwell plate containing 200 μL of acetonitrile in each well and centrifuged at 2000 rpm for 5 minutes. The so obtained solutions were then analyzed simultaneously by HPLC-UV with standard solutions for quantification.

[2] = tested on: TT medullary thyroid carcinoma cells, harboring a mutated RET-C634W receptor; assay: In Vitro Cell Proliferation Assay (TT); assay type: cell-based; conditions: Homo sapiens; 144 hours exposure, CellTiterGlo
Procedure: (§1) In Vitro Cell Proliferation Assay
(§2) To evaluate the antiproliferative activity of a compound of formula (I) the following human cell lines were used: A2780 ovarian and MCF-7 breast carcinoma; TT and MZ-CRC-1 medullary thyroid carcinoma, harboring a mutated RET-C634W and RET-M918T receptor respectively, LC-2/ad Non Small Cell Lung Carcinoma, expressing the CCDC6-RET fusion gene product. Exponentially growing cells were seeded and incubated at 37° C. in a humidified 5% C02 atmosphere using appropriate medium supplemented with 10% Fetal Bovine Serum. 24 hours following cell plating, scalar doses of the compounds dissolved in 0.1% DMSO were added to the medium and cells were exposed to drugs for either 72 hours (MCF-7 and A2780) or 144 hours (TT, MZ-CRC-1 and LC-2/ad), according to their different proliferation rate. At the end of treatment, cell proliferation was determined by an intracellular ATP monitoring system (CellTiterGlo—Promega), following manufacturer's instructions, and using an Envision instrument (PerkinElmer) as reader. Data obtained from compound versus vehicle treated cells were compared using Assay Explorer (Symyx Technologies Inc) software. IC50 values were calculated using sigmoidal interpolation curve fitting.

[3] = tested on: A2780 ovarian carcinoma cells; assay: In Vitro Cell Proliferation Assay (A2780); assay type: cell-based; conditions: Homo sapiens, 72 hours exposure, CellTiterGlo
Procedure: as §1, §2

[4] = tested on: MCF-7 breast carcinoma cells; assay: In Vitro Cell Proliferation Assay (MCF-7); assay type: cell-based; conditions: Homo sapiens, MCF7; 72 hours exposure, CellTiterGlo
Procedure: as §1, §2

[5] = tested on: MZ-CRC-1 medullary thyroid carcinoma cells, harboring a mutated RET-M918T receptor; assay: In Vitro Cell Proliferation Assay (MZ-CRC-1); assay type: cell-based; conditions: Homo sapiens, 144 hours exposure, CellTiterGlo
Procedure: as §1, §2

SMILES | solubility at 24 h [1] | IC50 [2] | pIC50 [3] | pIC50 [4] | IC50 [5] | solubility (in words) ([1]; neutral, physiological pH (pH 7), compared with the reference compound)
Cn1nc(C(C)(C)C)cc1NC(=O)Cc1cccc(C#Cc2cnc(N)nc2-c2cc3c(n2C)CCNC3=O)c1 [Cmpd 105, 2-{3-[2-Amino-4-(1-methyl-4-oxo-4,5,6,7-tetrahydro-1H-pyrrolo[3,2-c]pyridin-2-yl)-pyrimidin-5-ylethynyl]-phenyl}-N-(5-tert-butyl-2-methyl-2H-pyrazol-3-yl)-acetamide] | 15.3 µM (≈ 8.21 µg/mL) | 0.025 µM | 5.56 | < 5.00 |  | 
CCN1CCN(Cc2ccc(NC(=O)Cc3cncc(C#Cc4cnc(N)nc4-c4cc5c(n4C)CCNC5=O)c3)cc2C(F)(F)F)CC1 [Cmpd 122, 2-{5-[2-Amino-4-(1-methyl-4-oxo-4,5,6,7-tetrahydro-1H-pyrrolo[3,2-c]pyridin-2-yl)-pyrimidin-5-ylethynyl]-pyridin-3-yl}-N-[4-(4-ethyl-piperazin-1-ylmethyl)-3-trifluoromethyl-phenyl]-acetamide] | 9.4 µM (≈ 6.31 µg/mL) | 0.001 µM | 6.15 | 5.57 |  | 
CN1CCCN(Cc2ccc(NC(=O)Cc3cccc(C#Cc4cnc(N)nc4-c4cc5c(n4C)CCNC5=O)c3)cc2C(F)(F)F)CC1 [Cmpd 149, 2-{3-[2-Amino-4-(1-methyl-4-oxo-4,5,6,7-tetrahydro-1H-pyrrolo[3,2-c]pyridin-2-yl)-pyrimidin-5-ylethynyl]-phenyl}-N-[4-(4-methyl-[1,4]diazepan-1-ylmethyl)-3-trifluoromethyl-phenyl]-acetamide] | 30.4 µM (≈ 20.4 µg/mL) | 0.013 µM | 5.72 | 5.43 |  | 
CN(C)[C@H]1CCN(Cc2ccc(NC(=O)Cc3cccc(C#Cc4cnc(N)nc4-c4cc5c(n4C)CCNC5=O)c3)cc2C(F)(F)F)C1 [Cmpd 150, 2-{3-[2-Amino-4-(1-methyl-4-oxo-4,5,6,7-tetrahydro-1H-pyrrolo[3,2-c]pyridin-2-yl)-pyrimidin-5-ylethynyl]-phenyl}-N-[4-((S)-3-dimethylamino-pyrrolidin-1-ylmethyl)-3-trifluoromethyl-phenyl]-acetamide] | 40.2 µM (≈ 27 µg/mL) | 0.006 µM | 5.72 | 5.25 |  | 
CCCN1CCN(Cc2ccc(NC(=O)Cc3cccc(C#Cc4cnc(NC)nc4-c4cc5c(n4C)CCNC5=O)c3)cc2C(F)(F)F)CC1 [Cmpd 179, 2-{3-[2-Methylamino-4-(1-methyl-4-oxo-4,5,6,7-tetrahydro-1H-pyrrolo[3,2-c]pyridin-2-yl)-pyrimidin-5-ylethynyl]-phenyl}-N-[4-(4-propyl-piperazin-1-ylmethyl)-3-trifluoromethyl-phenyl]-acetamide] | 1.2 µM (≈ 0.839 µg/mL) | 0.017 µM | 5.49 |  | 0.038 µM | 
Cn1c(-c2nc(N)ncc2C#Cc2cccc(NC(=O)Nc3ccc(C(F)(F)F)cc3)c2)cc2c1CCNC2=O [Reference cmpd, 1-{3-[2-Amino-4-(1-methyl-4-oxo-4,5,6,7-tetrahydro-1H-pyrrolo[3,2-c]pyridin-2-yl)-pyrimidin-5-ylethynyl]-phenyl}-3-(4-trifluoromethyl-phenyl)-urea, reference compound] | < 1 µM | 0.041 µM | 5.56 | 5.34 | 0.317 µM | lack of solubility

The next lines start with the values.

solubility at 24 h [1] | IC50 [2] | pIC50 [3] | pIC50 [4] | IC50 [5] | solubility (in words) ([1]; neutral, physiological pH (pH 7), compared with the reference compound) | SMILES
5.8 µM (≈ 3.9 µg/mL) | 0.007 µM | 5.94 | 5.55 |  |  | CCN1CCN(Cc2cc(NC(=O)Nc3cccc(C#Cc4cnc(N)nc4-c4cc5c(n4C)CCNC5=O)c3)ccc2C(F)(F)F)CC1 [Cmpd 22, 1-{3-[2-Amino-4-(1-methyl-4-oxo-4,5,6,7-tetrahydro-1H-pyrrolo[3,2-c]pyridin-2-yl)-pyrimidin-5-ylethynyl]-phenyl}-3-[3-(4-ethyl-piperazin-1-ylmethyl)-4-trifluoromethyl-phenyl]-urea]
7.4 µM (≈ 4.97 µg/mL) | 0.085 µM | 5.65 | 5.04 |  |  | CCN1CCN(Cc2cc(NC(=O)Nc3cccc(C#Cc4cnc(N)nc4-c4cc5c(n4C)CCNC5=O)c3)cc(C(F)(F)F)c2)CC1 [Cmpd 29, 1-{3-[2-Amino-4-(1-methyl-4-oxo-4,5,6,7-tetrahydro-1H-pyrrolo[3,2-c]pyridin-2-yl)-pyrimidin-5-ylethynyl]-phenyl}-3-[3-(4-ethyl-piperazin-1-ylmethyl)-5-trifluoromethyl-phenyl]-urea]
1.7 µM (≈ 1.14 µg/mL) | 0.008 µM | 6.00 | 5.66 |  |  | CCN1CCN(Cc2ccc(NC(=O)Nc3ccc(C#Cc4cnc(N)nc4-c4cc5c(n4C)CCNC5=O)cc3)cc2C(F)(F)F)CC1 [Cmpd 30, 1-{4-[2-Amino-4-(1-methyl-4-oxo-4,5,6,7-tetrahydro-1H-pyrrolo[3,2-c]pyridin-2-yl)-pyrimidin-5-ylethynyl]-phenyl}-3-[4-(4-ethyl-piperazin-1-ylmethyl)-3-trifluoromethyl-phenyl]-urea]
10.8 µM (≈ 7.08 µg/mL) | 0.038 µM | 5.71 | 5.30 |  |  | CCN1CCN(Cc2ccc(NC(=O)Nc3cccc(C#Cc4cnccc4-c4cc5c(n4C)CCNC5=O)c3)cc2C(F)(F)F)CC1 [Cmpd 38, 1-[4-(4-Ethyl-piperazin-1-ylmethyl)-3-trifluoromethyl-phenyl]-3-{3-[4-(1-methyl-4-oxo-4,5,6,7-tetrahydro-1H-pyrrolo[3,2-c]pyridin-2-yl)-pyridin-3-ylethynyl]-phenyl}-urea]
4.7 µM (≈ 3.28 µg/mL) | 0.069 µM | 5.76 | 5.46 | 0.231 µM |  | CCN1CCN(Cc2ccc(NC(=O)N3CCc4ccc(C#Cc5cnc(N)nc5-c5cc6c(n5C)CCNC6=O)cc43)cc2C(F)(F)F)CC1 [Cmpd 44, 6-[2-Amino-4-(1-methyl-4-oxo-4,5,6,7-tetrahydro-1H-pyrrolo[3,2-c]pyridin-2-yl)-pyrimidin-5-ylethynyl]-2,3-dihydro-indole-1-carboxylic acid [4-(4-ethyl-piperazin-1-ylmethyl)-3-trifluoromethyl-phenyl]-amide]
25.1 µM (≈ 16.8 µg/mL) | 0.06 µM | 5.41 | < 5.00 |  |  | CCN1CCN(Cc2ccc(NC(=O)Cc3ccc(C#Cc4cnc(N)nc4-c4cc5c(n4C)CCNC5=O)cc3)cc2C(F)(F)F)CC1 [Cmpd 123, 2-{4-[2-Amino-4-(1-methyl-4-oxo-4,5,6,7-tetrahydro-1H-pyrrolo[3,2-c]pyridin-2-yl)-pyrimidin-5-ylethynyl]-phenyl}-N-[4-(4-ethyl-piperazin-1-ylmethyl)-3-trifluoromethyl-phenyl]-acetamide]
26.4 µM (≈ 17.9 µg/mL) | 0.002 µM | 6.98 | 5.09 |  |  | CCN1CCN(Cc2ccc(NC(=O)Cc3ccc(C#Cc4cnc(N)nc4-c4cc5c(n4C)CCNC5=O)s3)cc2C(F)(F)F)CC1 [Cmpd 129, 2-{5-[2-Amino-4-(1-methyl-4-oxo-4,5,6,7-tetrahydro-1H-pyrrolo[3,2-c]pyridin-2-yl)-pyrimidin-5-ylethynyl]-thiophen-2-yl}-N-[4-(4-ethyl-piperazin-1-ylmethyl)-3-trifluoromethyl-phenyl]-acetamide]
8.9 µM (≈ 6.09 µg/mL) | 0.002 µM | 5.69 | 5.25 |  |  | CCCN1CCN(Cc2ccc(NC(=O)Cc3cccc(C#Cc4cnc(N)nc4-c4cc5c(n4C)CCNC5=O)c3)cc2C(F)(F)F)CC1 [Cmpd 164, 2-{3-[2-Amino-4-(1-methyl-4-oxo-4,5,6,7-tetrahydro-1H-pyrrolo[3,2-c]pyridin-2-yl)-pyrimidin-5-ylethynyl]-phenyl}-N-[4-(4-propyl-piperazin-1-ylmethyl)-3-trifluoromethyl-phenyl]-acetamide]

— US9604980B2, “Substituted pyrimidinyl and pyridinyl-pyrrolopyridinones, process for their preparation and their use as kinase inhibitors” (NERVIANO MEDICAL SCIENCES S.r.l, priority 2012, dated 2017)
